Series [1] deals with bicistronic HCV replicon (replicon RNA, GenBank Accession No. AJ242654). Put plainly: HCV Replicon Assay. The class given is cell-based. To be noted: Hepatitis C virus, 72 h, read-out: Replicon IC50.

The record followed here is patent US8735414B2 (priority 2009, dated 2014).

Each structure is given as a SMILES string.

The compound `C[C@H](NS(=O)(=O)c1cnc(-c2c(C#N)c3cc(C(F)F)ccc3n2C2CCC2)nc1)C(F)(F)F` [compound 380, 2-[3-cyano-1-cyclobutyl-5-(difluoromethyl)-1H-indol-2-yl]-N-[(2S)-1,1,1-trifluoropropan-2-yl]pyrimidine-5-sulfonamide] gave a melting point of 186 to 188 °C. For the same compound, the IC50 in series [1] was less than 0.5 µM.

As for `CC(C)n1c(-c2ccc(S(=O)(=O)N[C@@H](C)C3CC3)cn2)c(C#N)c2cc(F)ccc21` [compound 604, 6-[3-cyano-5-fluoro-1-(propan-2-yl)-1H-indol-2-yl]-N-[(1S)-1-cyclopropylethyl]pyridine-3-sulfonamide], the melting point lay within 138 to 143 °C. Also, the IC50 in series [1] was less than 0.5 µM.

`CC(C)NS(=O)(=O)c1cnc(-c2c(C#N)c3ccc(C4CC4)cc3n2CC2CC2)nc1` [compound 124, 2-[3-cyano-6-cyclopropyl-1-(cyclopropylmethyl)-1H-indol-2-yl]-N-(propan-2-yl)pyrimidine-5-sulfonamide] registered a melting point of 169 to 174 °C. Further, the IC50 in series [1] is less than 0.5 µM.

Compound `N#Cc1c(-c2ccc(S(=O)(=O)NC(CF)CF)cn2)n(C2CCCCC2)c2cc(OC(F)(F)F)ccc12` [compound 105, 6-[3-cyano-1-cyclohexyl-6-(trifluoromethoxy)-1H-indol-2-yl]-N-(1,3-difluoropropan-2-yl)pyridine-3-sulfonamide] came in with a melting point of 146 to 148 °C. For the same compound, the IC50 in series [1] was less than 0.5 µM.

In turn, `Cc1ccc2c(C#N)c(-c3ncc(S(=O)(=O)NC(C)C)cn3)n(C3CCC3)c2c1` [compound 169, 2-(3-cyano-1-cyclobutyl-6-methyl-1H-indol-2-yl)-N-(propan-2-yl)pyrimidine-5-sulfonamide] yielded a melting point of 217 to 219 °C. The IC50 in series [1] is less than 0.5 µM.

For `C[C@H](NS(=O)(=O)c1cnc(-c2c(C#N)c3ccc(OC(F)F)cc3n2C2CCCCC2)nc1)C1CC1` [compound 471, 2-[3-cyano-1-cyclohexyl-6-(difluoromethoxy)-1H-indol-2-yl]-N-[(1S)-1-cyclopropylethyl]pyrimidine-5-sulfonamide], the melting point fell in the range of 150 to 152 °C. Further, the IC50 in series [1] is less than 0.5 µM.

`Cc1ccc2c(c1)c(C#N)c(-c1ccc(S(=O)(=O)N[C@@H](C)C(F)(F)F)cn1)n2-c1ncc(F)cn1` [compound 948, 6-[3-cyano-1-(5-fluoropyrimidin-2-yl)-5-methyl-1H-indol-2-yl]-N-[(2S)-1,1,1-trifluoropropan-2-yl]pyridine-3-sulfonamide] had a melting point of 202 to 207 °C. Also, the IC50 in series [1] was less than 0.5 µM.

`Cc1cc2c(cc1F)c(C#N)c(-c1ccc(S(=O)(=O)N[C@@H](C)C(F)(F)F)cn1)n2-c1nc(C#N)co1` [compound 1074, 6-[3-cyano-1-(4-cyano-1,3-oxazol-2-yl)-5-fluoro-6-methyl-1H-indol-2-yl]-N-[(2S)-1,1,1-trifluoropropan-2-yl]pyridine-3-sulfonamide] showed a melting point of 212.2 to 216.9 °C. Further, the IC50 in series [1] was less than 0.5 µM.

For `C[C@H](NS(=O)(=O)c1ccc(-c2c(C#N)c3ccc(CC(F)F)cc3n2C2CCC2)nc1)C(F)(F)F` [compound 384, 6-[3-cyano-1-cyclobutyl-6-(2,2-difluoroethyl)-1H-indol-2-yl]-N-[(2S)-1,1,1-trifluoropropan-2-yl]pyridine-3-sulfonamide], the melting point was in the range of 172 to 174 °C. For the same compound, the IC50 in series [1] was less than 0.5 µM.

In turn, `Cc1ccc2c(c1)c(C#N)c(-c1ncc(S(=O)(=O)NC(C)C)cn1)n2CC1CC1` [compound 388, 2-[3-cyano-1-(cyclopropylmethyl)-5-methyl-1H-indol-2-yl]-N-(propan-2-yl)pyrimidine-5-sulfonamide] returned a melting point of 219 to 222 °C. In addition, the IC50 in series [1] was 0.5 to 2 µM.

Compound `CCc1cc2c(cc1F)c(C#N)c(-c1cc(C)c(S(=O)(=O)N[C@@H](C)C(F)(F)F)cn1)n2-c1ncccn1` [compound 851, 6-[3-cyano-6-ethyl-5-fluoro-1-(pyrimidin-2-yl)-1H-indol-2-yl]-4-methyl-N-[(2S)-1,1,1-trifluoropropan-2-yl]pyridine-3-sulfonamide] returned a melting point of 231 to 236 °C. For the same compound, the IC50 in series [1] was less than 0.5 µM.

With `CCc1ccc2c(C#N)c(-c3ccc(S(=O)(=O)NC(C)C)cn3)n(C(C)C)c2c1` [compound 75, 6-[3-cyano-6-ethyl-1-(propan-2-yl)-1H-indol-2-yl]-N-(propan-2-yl)pyridine-3-sulfonamide], the melting point was 185 to 186 °C. In addition, the half-maximal inhibitory concentration (IC50) in series [1] was less than 0.5 µM.

In turn, `N#Cc1c(-c2ccc(S(=O)(=O)NC3CC(F)(F)C3)cn2)n(C2CCC2)c2cc(Cl)ccc12` [compound 244, 6-(6-chloro-3-cyano-1-cyclobutyl-1H-indol-2-yl)-N-(3,3-difluorocyclobutyl)pyridine-3-sulfonamide] returned a melting point of 135 to 138 °C. The IC50 in series [1] is 2 to 5 µM.

`C[C@H](NS(=O)(=O)c1ccc(-c2c(C#N)c3ccc(OC(F)F)cc3n2C2CCCCC2)nc1)C(F)(F)F` [compound 341, 6-[3-cyano-1-cyclohexyl-6-(difluoromethoxy)-1H-indol-2-yl]-N-[(2S)-1,1,1-trifluoropropan-2-yl]pyridine-3-sulfonamide]: the melting point lay within 149 to 151 °C. In addition, the IC50 in series [1] is less than 0.5 µM.

Regarding `C[C@H](NS(=O)(=O)c1ccc(-c2c(C#N)c3ccc(CC(F)F)cc3n2C2CCCC2)nc1)C(F)(F)F` [compound 595, 6-[3-cyano-1-cyclopentyl-6-(2,2-difluoroethyl)-1H-indol-2-yl]-N-[(2S)-1,1,1-trifluoropropan-2-yl]pyridine-3-sulfonamide], the melting point was 181 to 189 °C. For the same compound, the IC50 in series [1] was less than 0.5 µM.

As to `CC(C)c1ccc2c(C#N)c(-c3ccc(S(=O)(=O)NC(CF)CF)cn3)n(C3CCC3)c2c1` [compound 43, 6-[3-cyano-1-cyclobutyl-6-(propan-2-yl)-1H-indol-2-yl]-N-(1,3-difluoropropan-2-yl)pyridine-3-sulfonamide], the melting point fell in the range of 135 to 140 °C. Besides, the concentration for half-maximal inhibition (IC50) in series [1] was less than 0.5 µM.

`CCn1c(-c2ccc(N(C(C)C)S(=O)(=O)CC)cn2)c(C#N)c2ccc(OC(C)C)cc21` [compound 282, N-{6-[3-cyano-1-ethyl-6-(propan-2-yloxy)-1H-indol-2-yl]pyridin-3-yl}-N-(propan-2-yl)ethanesulfonamide] had a melting point of 170 to 175 °C. Besides, the IC50 in series [1] lay within 0.5 to 2 µM.

As for `COc1ccc2c(C#N)c(-c3ccc(S(=O)(=O)N[C@@H](C)C(F)(F)F)cn3)n(C3CCCC3)c2c1` [compound 430, 6-(3-cyano-1-cyclopentyl-6-methoxy-1H-indol-2-yl)-N-[(2S)-1,1,1-trifluoropropan-2-yl]pyridine-3-sulfonamide], the melting point lay in the range of 209 to 216 °C. In series [1], the IC50 is less than 0.5 µM.

The compound `Cc1cc2c(cc1F)c(C#N)c(-c1ccc(S(=O)(=O)N[C@@H](C)C(F)(F)F)cn1)n2-c1ccncc1F` [compound 1014, 6-[3-cyano-5-fluoro-1-(3-fluoropyridin-4-yl)-6-methyl-1H-indol-2-yl]-N-[(2S)-1,1,1-trifluoropropan-2-yl]pyridine-3-sulfonamide] had a melting point of 204.2 to 210.5 °C. In addition, the IC50 in series [1] is less than 0.5 µM.

For the compound `N#Cc1c(-c2ccc(S(=O)(=O)NC(CF)CF)cn2)n(-c2ccc(F)cc2)c2cc(OC(F)F)ccc12` [compound 228, 6-[3-cyano-6-(difluoromethoxy)-1-(4-fluorophenyl)-1H-indol-2-yl]-N-(1,3-difluoropropan-2-yl)pyridine-3-sulfonamide], the melting point lay within 192 to 198 °C. Besides, in series [1], the IC50 is less than 0.5 µM.

`Cc1c(F)cc2c(C#N)c(-c3ccc(S(=O)(=O)N[C@@H](C)C(F)(F)F)cn3)n(C3CCC3)c2c1F` [compound 532, 6-(3-cyano-1-cyclobutyl-5,7-difluoro-6-methyl-1H-indol-2-yl)-N-[(2S)-1,1,1-trifluoropropan-2-yl]pyridine-3-sulfonamide] yielded a melting point of 186 to 191 °C. Further, in series [1], the IC50 is less than 0.5 µM.

In turn, `C[C@H](NS(=O)(=O)c1ccc(-c2c(C(N)=O)c3cc(F)ccc3n2C2CCC2)nc1)C(F)(F)F` [compound 997, 1-cyclobutyl-5-fluoro-2-(5-{[(2S)-1,1,1-trifluoropropan-2-yl]sulfamoyl}pyridin-2-yl)-1H-indole-3-carboxamide] yielded a melting point of 224 to 227 °C. In series [1], the IC50 is less than 0.5 µM.

Take `C[C@H](NS(=O)(=O)c1ccc(-c2c(C#N)c3ccc(F)cc3n2C2CCC2)nc1)C1CC1` [compound 144, 6-(3-cyano-1-cyclobutyl-6-fluoro-1H-indol-2-yl)-N-[(1S)-1-cyclopropylethyl]pyridine-3-sulfonamide]: the melting point was in the range of 136 to 138 °C. Also, in series [1], the IC50 is less than 0.5 µM.

Turning to `C[C@@H](NS(=O)(=O)c1ccc(-c2c(C#N)c3cc(F)c(OC(F)F)cc3n2C2CCCC2)nc1)C(F)(F)F` [compound 713, 6-[3-cyano-1-cyclopentyl-6-(difluoromethoxy)-5-fluoro-1H-indol-2-yl]-N-[(2R)-1,1,1-trifluoropropan-2-yl]pyridine-3-sulfonamide], the melting point was in the range of 197 to 200 °C. Also, the IC50 in series [1] was less than 0.5 µM.

Turning to `C[C@@H](NS(=O)(=O)c1ccc(-c2c(C#N)c3ccc(F)cc3n2C2CCCC2)nc1)C(F)(F)F` [compound 218, 6-(3-cyano-1-cyclopentyl-6-fluoro-1H-indol-2-yl)-N-[(2R)-1,1,1-trifluoropropan-2-yl]pyridine-3-sulfonamide], the melting point is 141 to 144 °C. The IC50 in series [1] was less than 0.5 µM.

`Cc1cc2c(cc1F)c(C#N)c(-c1ccc(S(=O)(=O)N[C@@H](C)C(F)(F)F)cn1)n2-c1occc1C#N` [compound 1072, 6-[3-cyano-1-(3-cyanofuran-2-yl)-5-fluoro-6-methyl-1H-indol-2-yl]-N-[(2S)-1,1,1-trifluoropropan-2-yl]pyridine-3-sulfonamide] yielded a melting point of 238 to 243.6 °C. Further, the IC50 in series [1] fell in the range of 0.5 to 2 µM.
